Measured values from PubChem BioAssay (NCI).
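Compound exposure: 48 hours, 5 concentrations, 96-well plates. Definition used: TGI = concentration required for complete inhibition of growth.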

Experiments:
Test in all cases: NCI anticancer screen, dose series, 48 h
[1] = test system: SK-MEL-28 melanoma
[2] = test system: SK-MEL-2 melanoma
[3] = test system: IGROV1 ovarian
[4] = test system: ACHN renal
[5] = test system: OVCAR-3 ovarian
[6] = test system: EKVX NSCLC
[7] = test system: PC-3 prostate
[8] = test system: A549 NSCLC
[9] = test system: CCRF-CEM leukemia
[10] = test system: HOP-92 NSCLC

Compound | TGI [1] | TGI [2] | TGI [3] | TGI [4] | TGI [5] | TGI [6] | TGI [7] | TGI [8] | TGI [9] | TGI [10]
C=C(C)C(=O)O[C@H]1CC2(CO)O[C@@H]2CC/C(COC(C)=O)=C/C2OC(=O)C(=C)[C@@H]21 (stereo not given in full) | > 64.6 µM | > 100 µM | > 100 µM | > 63.6 µM | 79.6 µM | > 100 µM | > 100 µM | > 100 µM | 39.3 µM | 51.9 µM
O=c1cnc2cc3ccccc3cc2[nH]1 | > 100 µM | > 100 µM | > 100 µM | > 100 µM | > 100 µM | > 100 µM | > 100 µM | > 100 µM | > 100 µM | > 100 µM
O=C1Sc2cc3ccccc3cc2C(=O)Sc2cc3ccccc3cc21 | > 85.4 µM | > 66.5 µM | > 100 µM | > 63.6 µM | > 63.5 µM | > 100 µM | > 100 µM | > 100 µM | 12.5 µM | > 87.6 µM
CC(C)Oc1cc2c(cc1O)CC[C@@H]1[C@@H]2CC[C@]2(C)[C@@H](O)CC[C@@H]12 | 56.6 µM | > 24.8 µM | 42.9 µM | > 84.7 µM | 12 µM | > 62 µM | > 67.4 µM | 65.9 µM | > 39.8 µM | 33.5 µM
Cc1cc2nc3c(N)nn(CCN(C)C)c3nc2cc1C | > 100 µM | > 100 µM | > 100 µM | 95.5 µM | > 100 µM | > 100 µM | > 100 µM | > 100 µM | > 100 µM | > 100 µM
CCOC(=O)NC(OCc1ccccc1)(C(=O)OC)C(F)(F)F (stereo not given) | > 100 µM | > 100 µM | > 100 µM | > 100 µM | > 100 µM | > 100 µM | > 100 µM | > 100 µM | > 100 µM | > 100 µM
CN1CCCC(OC(=O)c2cc3cc(CCl)ccc3oc2=O)C1 (stereo not given) | 50.3 µM | 33.9 µM | > 100 µM | 51.1 µM | 37.8 µM | 91.5 µM | 41.3 µM | > 100 µM | 55 µM | 30.5 µM
CC1Cc2c(cc(N)nc2Br)NC1=O (stereo not given) | > 100 µM | > 100 µM | > 100 µM | > 100 µM | > 100 µM | > 100 µM | > 100 µM | > 100 µM | > 100 µM | > 100 µM
COc1c(-c2ccc(F)cc2)oc2cc(O)cc(O)c2c1=O | > 100 µM | 64.3 µM | > 100 µM | 93.4 µM | > 100 µM | 45.5 µM | > 100 µM | > 100 µM | 95.3 µM | > 100 µM
COC(CC1(CCNc2ccccc2)C(=O)N(COCC[Si](C)(C)C)c2ccccc21)OC (stereo not given) | 30.1 µM | 29.9 µM | 21.4 µM | 37.1 µM | 31.6 µM | 31.7 µM | 27.8 µM | 34.3 µM | > 31.6 µM | 42.2 µM
CCC(=O)Nc1ccc(N2C(=O)/C(=C/c3ccc(O)c(OC)c3)N=C2c2ccccc2)cc1 | > 100 µM | 93.5 µM | > 100 µM | 89.9 µM | > 100 µM | 46.4 µM | 60.8 µM | > 100 µM | > 100 µM | > 100 µM
CCC1(O)CC(O)c2c(O)c3c(c(O)c2C1C(=O)OC)C(=O)c1cccc(O)c1C3=O (stereo not given) | 75.4 µM | 10.2 µM | 12.1 µM | 15.1 µM | 8.63 µM | 6.65 µM | 13 µM | 14.2 µM | 9.71 µM | 32.1 µM
O=c1[nH]nc(N/N=C\c2ccc(Cl)cc2)c2ccccc12 | 56.9 µM | 37 µM | 37.2 µM | 37.8 µM | 30.2 µM | > 100 µM | 40.2 µM | 41.6 µM | > 100 µM | 34.5 µM
